Test results from ChEMBL document CHEMBL3603774, “Novel 5-functionalized-pyrazoles: Synthesis, characterization and pharmacological screening” (Bioorg Med Chem Lett, 2015).
≈ marks a conversion by molar mass, not a printed value.

Legend:
Bacillus cereus [1] = experiment: Antibacterial activity against Bacillus cereus MTCC 8372 at 50 ug/ml after 24 hrs by disc diffusion method; type: functional; conditions: MTCC 8372, 24 h, read-out: IZ
Bacillus cereus [2] = experiment: Antibacterial activity against Bacillus cereus MTCC 8372 at 100 ug/ml after 24 hrs by disc diffusion method; type: functional; conditions: MTCC 8372, 24 h, read-out: IZ
Staphylococcus aureus [3] = experiment: Antibacterial activity against Staphylococcus aureus MTCC 96 at 50 ug/ml after 24 hrs by disc diffusion method; type: functional; conditions: MTCC 96, 24 h, read-out: IZ
Staphylococcus aureus [4] = experiment: Antibacterial activity against Staphylococcus aureus MTCC 96 at 100 ug/ml after 24 hrs by disc diffusion method; type: functional; conditions: MTCC 96, 24 h, read-out: IZ
Escherichia coli [5] = experiment: Antibacterial activity against Escherichia coli MTCC 724 at 50 ug/ml after 24 hrs by disc diffusion method; type: functional; conditions: MTCC 724, 24 h, read-out: IZ
Escherichia coli [6] = experiment: Antibacterial activity against Escherichia coli MTCC 724 at 100 ug/ml after 24 hrs by disc diffusion method; type: functional; conditions: MTCC 724, 24 h, read-out: IZ
Klebsiella pneumoniae [7] = experiment: Antibacterial activity against Klebsiella pneumoniae MTCC 3384 at 50 ug/ml after 24 hrs by disc diffusion method; type: functional; conditions: MTCC 3384, 24 h, read-out: IZ
Klebsiella pneumoniae [8] = experiment: Antibacterial activity against Klebsiella pneumoniae MTCC 3384 at 100 ug/ml after 24 hrs by disc diffusion method; type: functional; conditions: MTCC 3384, 24 h, read-out: IZ
Aspergillus flavus [9] = experiment: Antifungal activity against Aspergillus flavus MTCC 873 at 50 ug/ml after 24 hrs by disc diffusion method; type: functional; conditions: MTCC 873, 24 h, read-out: IZ
Aspergillus flavus [10] = experiment: Antifungal activity against Aspergillus flavus MTCC 873 at 100 ug/ml after 24 hrs by disc diffusion method; type: functional; conditions: MTCC 873, 24 h, read-out: IZ
Aspergillus niger [11] = experiment: Antifungal activity against Aspergillus niger MTCC 281 at 50 ug/ml after 24 hrs by disc diffusion method; type: functional; conditions: MTCC 281, 24 h, read-out: IZ
Bacillus cereus [12] = experiment: Antibacterial activity against Bacillus cereus MTCC 8372 after 24 hrs by microdilution method; type: functional; conditions: MTCC 8372, 24 h
Bacillus cereus [13] = experiment: Antibacterial activity against Bacillus cereus MTCC 8372 assessed as concentration required to completely destroy test microorganisms after 24 hrs; type: functional; conditions: MTCC 8372, 24 h
Staphylococcus aureus [14] = experiment: Antibacterial activity against Staphylococcus aureus MTCC 96 after 24 hrs by microdilution method; type: functional; conditions: MTCC 96, 24 h
Staphylococcus aureus [15] = experiment: Antibacterial activity against Staphylococcus aureus MTCC 96 assessed as concentration required to completely destroy test microorganisms after 24 hrs; type: functional; conditions: MTCC 96, 24 h
Escherichia coli [16] = experiment: Antibacterial activity against Escherichia coli MTCC 724 after 24 hrs by microdilution method; type: functional; conditions: MTCC 724, 24 h
Escherichia coli [17] = experiment: Antibacterial activity against Escherichia coli MTCC 724 assessed as concentration required to completely destroy test microorganisms after 24 hrs; type: functional; conditions: MTCC 724, 24 h
Klebsiella pneumoniae [18] = experiment: Antibacterial activity against Klebsiella pneumoniae MTCC 3384 after 24 hrs by microdilution method; type: functional; conditions: MTCC 3384, 24 h
Klebsiella pneumoniae [19] = experiment: Antibacterial activity against Klebsiella pneumoniae MTCC 3384 assessed as concentration required to completely destroy test microorganisms after 24 hrs; type: functional; conditions: MTCC 3384, 24 h
Aspergillus flavus [20] = experiment: Antifungal activity against Aspergillus flavus MTCC 873 after 48 hrs by microdilution method; type: functional; conditions: MTCC 873, 48 h
Aspergillus flavus [21] = experiment: Antifungal activity against Aspergillus flavus MTCC 873 assessed as concentration required to completely destroy test microorganisms after 24 hrs; type: functional; conditions: MTCC 873, 24 h
Aspergillus niger [22] = experiment: Antifungal activity against Aspergillus niger MTCC 281 after 48 hrs by microdilution method; type: functional; conditions: MTCC 281, 48 h
Aspergillus niger [23] = experiment: Antifungal activity against Aspergillus niger MTCC 281 assessed as concentration required to completely destroy test microorganisms after 24 hrs; type: functional; conditions: MTCC 281, 24 h
Aspergillus niger [24] = experiment: Antifungal activity against Aspergillus niger MTCC 281 at 100 ug/ml after 24 hrs by disc diffusion method; type: functional; conditions: MTCC 281, 24 h, read-out: IZ
Alpha amylase = target: T1, Alpha amylase (Homo sapiens, UniProt P0DUB6); experiment: Inhibition of alpha-amylase (unknown origin) using starch as substrate after 30 mins by spectrophotometer analysis
T1 sequence (P0DUB6 whole entry): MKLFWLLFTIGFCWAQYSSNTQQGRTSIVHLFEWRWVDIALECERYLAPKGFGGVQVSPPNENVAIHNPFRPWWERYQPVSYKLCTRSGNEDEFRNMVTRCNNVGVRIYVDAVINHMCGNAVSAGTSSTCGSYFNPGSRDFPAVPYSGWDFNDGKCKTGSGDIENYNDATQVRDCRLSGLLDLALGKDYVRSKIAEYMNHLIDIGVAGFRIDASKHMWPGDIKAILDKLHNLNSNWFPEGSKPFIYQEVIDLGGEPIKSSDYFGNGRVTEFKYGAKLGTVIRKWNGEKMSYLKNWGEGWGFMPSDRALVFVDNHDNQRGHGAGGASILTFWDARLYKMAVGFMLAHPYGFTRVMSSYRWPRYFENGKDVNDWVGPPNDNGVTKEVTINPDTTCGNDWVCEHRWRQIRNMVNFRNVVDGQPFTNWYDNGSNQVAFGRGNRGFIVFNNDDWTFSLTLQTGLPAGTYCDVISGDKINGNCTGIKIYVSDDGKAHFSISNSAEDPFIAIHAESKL

[25] = Inhibition of alpha-glucosidase (unknown origin) using p-nitrophenol glycoside as substrate after 30 mins by colorimetric analysis; parameters: species or system Homo sapiens

MIC (Bacillus cereus [12])	MIC (Staphylococcus aureus [14])	MIC (Escherichia coli [16])	MIC (Klebsiella pneumoniae [18])	MIC (Aspergillus flavus [20])	Compound	zone of inhibition at 50 µg/mL (Bacillus cereus [1])	zone of inhibition at 100 µg/mL (Bacillus cereus [2])	zone of inhibition at 50 µg/mL (Staphylococcus aureus [3])	zone of inhibition at 100 µg/mL (Staphylococcus aureus [4])	zone of inhibition at 50 µg/mL (Escherichia coli [5])	zone of inhibition at 100 µg/mL (Escherichia coli [6])	zone of inhibition at 50 µg/mL (Klebsiella pneumoniae [7])	zone of inhibition at 100 µg/mL (Klebsiella pneumoniae [8])	zone of inhibition at 50 µg/mL (Aspergillus flavus [9])	zone of inhibition at 100 µg/mL (Aspergillus flavus [10])	zone of inhibition at 50 µg/mL (Aspergillus niger [11])	MBC (Bacillus cereus [13])	MBC (Staphylococcus aureus [15])	MBC (Escherichia coli [17])	MBC (Klebsiella pneumoniae [19])	also measured
15 µg/mL (≈ 22.8 µM)	40 µg/mL (≈ 60.8 µM)	35 µg/mL (≈ 53.2 µM)	30 µg/mL (≈ 45.6 µM)	55 µg/mL (≈ 83.6 µM)	CCOC(=O)c1c(-c2ccccc2)nn(-c2ccccc2)c1COCc1c(-c2ccc(F)cc2)nc(N(C)S(C)(=O)=O)nc1C(C)C	8 mm	20 mm	6 mm	19 mm	3 mm	10 mm	8 mm	10 mm	12 mm	6 mm	10 mm	150 µg/mL (≈ 228 µM)	190 µg/mL (≈ 289 µM)	280 µg/mL (≈ 426 µM)	240 µg/mL (≈ 365 µM)	MFC (Aspergillus flavus [21]): 300 µg/mL (≈ 456 µM); MIC (Aspergillus niger [22]): 50 µg/mL (≈ 76 µM); MFC (Aspergillus niger [23]): 280 µg/mL (≈ 426 µM); zone of inhibition at 100 µg/mL (Aspergillus niger [24]): 8 mm; IC50 (Alpha amylase): 15 µg/mL (≈ 22.8 µM); IC50 [25]: 25 µg/mL (≈ 38 µM)
40 µg/mL (≈ 82.2 µM)	40 µg/mL (≈ 82.2 µM)	25 µg/mL (≈ 51.4 µM)	20 µg/mL (≈ 41.1 µM)	50 µg/mL (≈ 103 µM)	CCOC(=O)c1c(-c2ccccc2)nn(-c2ccccc2)c1COc1cc(OC)c(C=O)c(OC)c1	6 mm	10 mm	8 mm	10 mm	15 mm	30 mm	10 mm	19 mm	10 mm	12 mm	14 mm	200 µg/mL (≈ 411 µM)	200 µg/mL (≈ 411 µM)	160 µg/mL (≈ 329 µM)	150 µg/mL (≈ 308 µM)	MFC (Aspergillus flavus [21]): 215 µg/mL (≈ 442 µM); MIC (Aspergillus niger [22]): 45 µg/mL (≈ 92.5 µM); MFC (Aspergillus niger [23]): 190 µg/mL (≈ 391 µM); zone of inhibition at 100 µg/mL (Aspergillus niger [24]): 11 mm; IC50 (Alpha amylase): 40 µg/mL (≈ 82.2 µM); IC50 [25]: 35 µg/mL (≈ 71.9 µM)
10 µg/mL (≈ 19.2 µM)	20 µg/mL (≈ 38.4 µM)	15 µg/mL (≈ 28.8 µM)	15 µg/mL (≈ 28.8 µM)	30 µg/mL (≈ 57.6 µM)	CCOC(=O)c1c(-c2ccccc2)nn(-c2ccccc2)c1Cn1c(S)nc2ccc(OC(F)F)cc21	11 mm	26 mm	12 mm	21 mm	20 mm	33 mm	16 mm	28 mm	18 mm	20 mm	12 mm	130 µg/mL (≈ 250 µM)	120 µg/mL (≈ 231 µM)	135 µg/mL (≈ 259 µM)	130 µg/mL (≈ 250 µM)	MFC (Aspergillus flavus [21]): 155 µg/mL (≈ 298 µM); MIC (Aspergillus niger [22]): 25 µg/mL (≈ 48 µM); MFC (Aspergillus niger [23]): 145 µg/mL (≈ 279 µM); zone of inhibition at 100 µg/mL (Aspergillus niger [24]): 22 mm; IC50 (Alpha amylase): 10 µg/mL (≈ 19.2 µM); IC50 [25]: 15 µg/mL (≈ 28.8 µM)
35 µg/mL (≈ 74.9 µM)	25 µg/mL (≈ 53.5 µM)	25 µg/mL (≈ 53.5 µM)	25 µg/mL (≈ 53.5 µM)	55 µg/mL (≈ 118 µM)	CCOC(=O)c1c(-c2ccccc2)nn(-c2ccccc2)c1Cn1cnc2cc([N+](=O)[O-])ccc21	5 mm	10 mm	6 mm	12 mm	8 mm	18 mm	6 mm	11 mm	6 mm	10 mm	5 mm	200 µg/mL (≈ 428 µM)	190 µg/mL (≈ 406 µM)	180 µg/mL (≈ 385 µM)	185 µg/mL (≈ 396 µM)	MFC (Aspergillus flavus [21]): 290 µg/mL (≈ 620 µM); MIC (Aspergillus niger [22]): 65 µg/mL (≈ 139 µM); MFC (Aspergillus niger [23]): 280 µg/mL (≈ 599 µM); zone of inhibition at 100 µg/mL (Aspergillus niger [24]): 10 mm; IC50 (Alpha amylase): 30 µg/mL (≈ 64.2 µM); IC50 [25]: 30 µg/mL (≈ 64.2 µM)
